Assay results from patent US8481544B2, “Antibacterial compositions” (Biota Europe Limited, priority 2006, dated 2013).
Values after ≈ are worked out from the molar mass of the structure shown.

test system: Enterococcus faecalis ATCC 29212; assay: MIC against Enterococcus faecalis ATCC 29212; assay type: cell-based; details: ATCC29212; Enterococcus faecalis ATCC 29212; read-out: MICs against Enterococcus faecalis, Activity
Method: Institute. Methods for Dilution Antimicrobial Susceptibility Tests for Bacteria That Grow Aerobically; Approved Standard—Seventh Edition. Document M7-A7. CLSI, Wayne, Pa., 2006; Clinical Laboratories and Standards Institute. Methods for Antimicrobial Susceptibility Testing of Anaerobic Bacteria; Approved Standard—Sixth Edition. Document M11-A6. CLSI, Wayne, Pa., 2004).
Compounds of this invention were tested for antimicrobial activity by susceptibility testing in liquid or on solid media. MICs for compounds against each strain were determined by the broth microdilution or agar dilution method according to the guidelines of the Clinical Laboratories and Standards Institute, formerly the National Committee for Clinical Laboratory Standards (Clinical Laboratories and Standards Institute. Methods for Dilution Antimicrobial Susceptibility Tests for Bacteria That Grow Aerobically; Approved Standard—Seventh Edition. Document M7-A7. CLSI, Wayne, Pa., 2006; Clinical Laboratories and Standards Institute. Methods for Antimicrobial Susceptibility Testing of Anaerobic Bacteria; Approved Standard—Sixth Edition. Document M11-A6. CLSI, Wayne, Pa., 2004).

Compound	MIC [µg/mL]
CCNC(=O)Nc1nc2cc(-c3cccnc3)cc(-c3cnn(C)c3)c2s1 [Example 83, 1-Ethyl-3-[7-(1-methyl-1H-pyrazol-4-yl)-5-pyridin-3-yl-benzothiazol-2-yl]-urea]	0.25 to 1 (≈ 0.661 to 2.64 µM)
CCNC(=O)Nc1nc2cc(-c3cccnc3)cc(-c3ccc(OC)cc3)c2s1 [Example 84, 1-Ethyl-3-[7-(4-methoxy-phenyl)-5-pyridin-3-yl-benzothiazol-2-yl]-urea]	0.25 to 1 (≈ 0.618 to 2.47 µM)
CCNC(=O)Nc1nc2cc(-c3cccnc3)cc(-c3cccnc3OC)c2s1 [Example 85, 1-Ethyl-3-[7-(2-methoxy-pyridin-3-yl)-5-pyridin-3-yl-benzothiazol-2-yl]-urea]	0.25 to 1 (≈ 0.617 to 2.47 µM)
CCNC(=O)Nc1nc2cc(-c3cccnc3)cc(-c3cccc(OC)c3)c2s1 [Example 86, 1-Ethyl-3-[7-(3-methoxy-phenyl)-5-pyridin-3-yl-benzothiazol-2-yl]-urea]	0.25 to 1 (≈ 0.618 to 2.47 µM)
CCNC(=O)Nc1nc2cc(-c3cccnc3)cc(-c3ccccc3OC)c2s1 [Example 87, 1-Ethyl-3-[7-(2-methoxy-phenyl)-5-pyridin-3-yl-benzothiazol-2-yl]-urea]	0.25 to 1 (≈ 0.618 to 2.47 µM)
CCNC(=O)Nc1nc2cc(-c3cccnc3)cc(-c3nccs3)c2s1 [Example 92, 1-Ethyl-3-(5-pyridin-3-yl-7-thiazol-2-yl-benzothiazol-2-yl)-urea]	< 0.25
CCNC(=O)Nc1nc2cc(-c3cccnc3)cc(-c3ncccn3)c2s1 [Example 93, 1-Ethyl-3-(5-pyridin-3-yl-7-pyrimidin-2-yl-benzothiazol-2-yl)-urea]	0.25 to 1 (≈ 0.664 to 2.66 µM)
CCNC(=O)Nc1nc2cc(-c3cccnc3)cc(-c3ncccc3N)c2s1 [Example 94, 1-[7-(3-Amino-pyridin-2-yl)-5-pyridin-3-yl-benzothiazol-2-yl]-3-ethyl-urea]	2 to 16 (≈ 5.12 to 41 µM)
CCNC(=O)Nc1nc2cc(-c3cccnc3)cc(-c3ncccc3C#N)c2s1 [Example 95, 1-[7-(3-Cyano-pyridin-2-yl)-5-pyridin-3-yl-benzothiazol-2-yl]-3-ethyl-urea]	< 0.25
CCNC(=O)Nc1nc2cc(-c3cccnc3)cc(-c3ccc(CO)cn3)c2s1 [Example 96, 1-Ethyl-3-[7-(5-hydroxymethyl-pyridin-2-yl)-5-pyridin-3-yl-benzothiazol-2-yl]-urea]	< 0.25
CCNC(=O)Nc1nc2cc(-c3cccnc3)cc(-c3ccc(CN)cn3)c2s1 [Example 97, 1-[7-(5-Aminomethyl-pyridin-2-yl)-5-pyridin-3-yl-benzothiazol-2-yl]-3-ethyl-urea]	0.25 to 1 (≈ 0.618 to 2.47 µM)
CCNC(=O)Nc1nc2cc(-c3cccnc3)cc(-c3ccc(C(N)=O)cn3)c2s1 [Example 98, 6-[2-(3-Ethyl-ureido)-5-pyridin-3-yl-benzothiazol-7-yl]-nicotinamide]	0.25 to 1 (≈ 0.597 to 2.39 µM)
CCNC(=O)Nc1nc2cc(-c3cccnc3)cc(-c3ccc(N)cn3)c2s1 [Example 99, 1-[7-(5-Amino-pyridin-2-yl)-5-pyridin-3-yl-benzothiazol-2-yl]-3-ethyl-urea]	< 0.25
CCNC(=O)Nc1nc2cc(-c3cccnc3)cc(-c3cc(N)ccn3)c2s1 [Example 100, 1-[7-(4-Amino-pyridin-2-yl)-5-pyridin-3-yl-benzothiazol-2-yl]-3-ethyl-urea]	< 0.25
CCNC(=O)Nc1nc2cc(-c3cccnc3)cc(-c3cnccn3)c2s1 [Example 101, 1-Ethyl-3-(7-pyrazin-2-yl-5-pyridin-3-yl-benzothiazol-2-yl)-urea]	< 0.25
CCNC(=O)Nc1nc2cc(-c3cccnc3)cc(-c3sc(C)nc3C)c2s1 [Example 102, 1-[7-(2,4-Dimethyl-thiazol-5-yl)-5-pyridin-3-yl-benzothiazol-2-yl]-3-ethyl-urea]	0.25 to 1 (≈ 0.61 to 2.44 µM)
CCNC(=O)Nc1nc2cc(-c3cccnc3)cc(-c3nc(C)ccc3C#N)c2s1 [Example 103, 1-[7-(3-Cyano-6-methyl-pyridin-2-yl)-5-pyridin-3-yl-benzothiazol-2-yl]-3-ethyl-urea]	< 0.25
CCNC(=O)Nc1nc2cc(-c3cccnc3)cc(-c3cccc(CO)n3)c2s1 [Example 104, 1-Ethyl-3-[7-(6-hydroxymethyl-pyridin-2-yl)-5-pyridin-3-yl-benzothiazol-2-yl]-urea]	< 0.25
CCNC(=O)Nc1nc2cc(-c3cccnc3)cc(-c3ccc(OC)nn3)c2s1 [Example 105, 1-Ethyl-3-[7-(6-methoxy-pyridazin-3-yl)-5-pyridin-3-yl-benzothiazol-2-yl]-urea]	0.25 to 1 (≈ 0.615 to 2.46 µM)
CCNC(=O)Nc1nc2cc(-c3cccnc3)cc(-c3nc(CO)cs3)c2s1 [Example 106, 1-Ethyl-3-[7-(4-hydroxymethyl-thiazol-2-yl)-5-pyridin-3-yl-benzothiazol-2-yl]-urea]	0.25 to 1 (≈ 0.608 to 2.43 µM)

Compound	MIC [µg/mL]
CCNC(=O)Nc1nc2cc(-c3cccnc3)cc(-c3ccc(C#N)cn3)c2s1 [Example 107, 1-[7-(5-Cyano-pyridin-2-yl)-5-pyridin-3-yl-benzothiazol-2-yl]-3-ethyl-urea]	< 0.25
CCNC(=O)Nc1nc2cc(-c3cccnc3)cc(-c3cc(C(N)=O)ccn3)c2s1 [Example 108, 2-[2-(3-Ethyl-ureido)-5-pyridin-3-yl-benzothiazol-7-yl]-isonicotinamide]	0.25 to 1 (≈ 0.597 to 2.39 µM)
CCNC(=O)Nc1nc2cc(-c3cccnc3)cc(-c3ncccc3CO)c2s1 [Example 109, 1-Ethyl-3-[7-(3-hydroxymethyl-pyridin-2-yl)-5-pyridin-3-yl-benzothiazol-2-yl]-urea]	2 to 16 (≈ 4.93 to 39.5 µM)
CCNC(=O)Nc1nc2cc(-c3cccnc3)cc(-c3nccc(N)n3)c2s1 [Example 110, 1-[7-(4-Amino-pyrimidin-2-yl)-5-pyridin-3-yl-benzothiazol-2-yl]-3-ethyl-urea]	< 0.25
CCNC(=O)Nc1nc2cc(-c3cccnc3)cc(-c3ccc4cc[nH]c4n3)c2s1 [Example 111, 1-Ethyl-3-[5-pyridin-3-yl-7-(1H-pyrrolo[2,3-b]pyridin-6-yl)-benzothiazol-2-yl]-urea]	< 0.25
CCNC(=O)Nc1nc2cc(-c3cccnc3)cc(-c3cc(OC)ccn3)c2s1 [Example 112, 1-Ethyl-3-[7-(4-methoxy-pyridin-2-yl)-5-pyridin-3-yl-benzothiazol-2-yl]-urea]	< 0.25
CCNC(=O)Nc1nc2cc(-c3cccnc3)cc(-c3cccc(C#N)n3)c2s1 [Example 113, 1-[7-(6-Cyano-pyridin-2-yl)-5-pyridin-3-yl-benzothiazol-2-yl]-3-ethyl-urea]	< 0.25
CCNC(=O)Nc1nc2cc(-c3cccnc3)cc(-c3ccnc(N)n3)c2s1 [Example 114, 1-[7-(2-Amino-pyrimidin-4-yl)-5-pyridin-3-yl-benzothiazol-2-yl]-3-ethyl-urea]	< 0.25
CCNC(=O)Nc1nc2cc(-c3cccnc3)cc(-c3nccc4cc[nH]c34)c2s1 [Example 115, 1-Ethyl-3-[5-pyridin-3-yl-7-(1H-pyrrolo[2,3-c]pyridin-7-yl)-benzothiazol-2-yl]-urea]	< 0.25
CCNC(=O)Nc1nc2cc(-c3cccnc3)cc(-c3ncnc4[nH]ccc34)c2s1 [Example 116, 1-Ethyl-3-[5-pyridin-3-yl-7-(7H-pyrrolo[2,3-d]pyrimidin-4-yl)-benzothiazol-2-yl]-urea]	< 0.25
CCNC(=O)Nc1nc2cc(-c3cccnc3)cc(-c3nc4ccccc4s3)c2s1 [Example 117, 1-Ethyl-3-(5′-pyridin-3-yl-[2,7′]bibenzothiazolyl-2′-yl)-urea]	< 0.25
CCNC(=O)Nc1nc2cc(-c3cccnc3)cc(-c3ncccc3OC)c2s1 [Example 118, 1-Ethyl-3-[7-(3-methoxy-pyridin-2-yl)-5-pyridin-3-yl-benzothiazol-2-yl]-urea]	< 0.25
CCNC(=O)Nc1nc2cc(-c3cccnc3)cc(-c3cc(C#N)ccn3)c2s1 [Example 119, 1-[7-(4-Cyano-pyridin-2-yl)-5-pyridin-3-yl-benzothiazol-2-yl]-3-ethyl-urea]	< 0.25
CCNC(=O)Nc1nc2cc(-c3cccnc3)cc(-c3ccc(CN4CCOCC4)cn3)c2s1 [Example 120, 1-Ethyl-3-[7-(5-morpholin-4-ylmethyl-pyridin-2-yl)-5-pyridin-3-yl-benzothiazol-2-yl]-urea]	0.25 to 1 (≈ 0.527 to 2.11 µM)
CCNC(=O)Nc1nc2cc(-c3cccnc3)cc(-c3cc(CO)ccn3)c2s1 [Example 121, 1-Ethyl-3-[7-(4-hydroxymethyl-pyridin-2-yl)-5-pyridin-3-yl-benzothiazol-2-yl]-urea]	< 0.25
CCNC(=O)Nc1nc2cc(-c3cccnc3)cc(-c3cc(OC)ncn3)c2s1 [Example 122, 1-Ethyl-3-[7-(6-methoxy-pyrimidin-4-yl)-5-pyridin-3-yl-benzothiazol-2-yl]-urea]	< 0.25
CCNC(=O)Nc1nc2cc(-c3cccnc3)cc(-c3cncc(N)n3)c2s1 [Example 123, 1-[7-(6-Amino-pyrazin-2-yl)-5-pyridin-3-yl-benzothiazol-2-yl]-3-ethyl-urea]	< 0.25
CCNC(=O)Nc1nc2cc(-c3cccnc3)cc(-c3nccc(OC)n3)c2s1 [Example 124, 1-Ethyl-3-[7-(4-methoxy-pyrimidin-2-yl)-5-pyridin-3-yl-benzothiazol-2-yl]-urea]	< 0.25
CCNC(=O)Nc1nc2cc(-c3cccnc3)cc(-c3cccc(N)n3)c2s1 [Example 125, 1-[7-(6-Amino-pyridin-2-yl)-5-pyridin-3-yl-benzothiazol-2-yl]-3-ethyl-urea]	< 0.25
CCNC(=O)Nc1nc2cc(-c3cccnc3)cc(-c3ncccc3Cl)c2s1 [Example 126, 1-[7-(3-Chloro-pyridin-2-yl)-5-pyridin-3-yl-benzothiazol-2-yl]-3-ethyl-urea]	< 0.25
